In ChEMBL document CHEMBL1130478, “Mono and bis double ester prodrugs of novel aminomethyl-THF 1-methylcarbapenems” (Bioorg Med Chem Lett, 1997):
Values after ≈ are worked out from the molar mass of the structure shown.

How the values were obtained:
Format in all cases: functional
[1] = system: Acinetobacter calcoaceticus; test: In vitro antibacterial activity against Acinetobacter calcoaceticus (GC 756) without preincubation in mouse serum
Enterococcus faecium [2] = test: In vitro for antibacterial activity against E. faecium(GC 1182) without pre-incubation in mouse serum
Pseudomonas aeruginosa [3] = test: In vitro antibacterial activity against Pseudomonas aeruginosa (ATCC 27853) without pre-incubation in mouse serum
Mus musculus [4] = test: Antibacterial activity against Escherichia coli (311) infection in mice after single subcutaneous dose, activity expressed as ED50; settings: sc
Staphylococcus aureus [5] = test: In vitro antibacterial activity against S aureus(ATCC 29213) following preincubation in mouse serum
Staphylococcus aureus [6] = test: In vitro antibacterial activity against S. aureus(GC 2220 MRSA) following pre-incubation in mouse serum
[7] = system: Acinetobacter calcoaceticus; test: In vitro antibacterial activity against Acinetobacter calcoaceticus (GC 756) following preincubation in mouse serum
Staphylococcus aureus [8] = test: In vitro antibacterial activity against S. aureus(GC 2220 MRSA) without pre-incubation in mouse serum
[9] = system: Stenotrophomonas maltophilia; test: In vitro antibacterial activity against X. maltophilia(GC 562) without pre-incubation in mouse serum
Enterobacter cloacae [10] = test: In vitro antibacterial activity against E. cloacae(GC 2209) without pre-incubation in mouse serum
[11] = system: Stenotrophomonas maltophilia; test: In vitro antibacterial activity against X. maltophilia(GC 562) following pre-incubation in mouse serum
Escherichia coli [12] = test: In vitro antibacterial activity expressed as MIC against Escherichia coli (ATCC 25922) without pre-incubation in mouse serum
Escherichia coli [13] = test: In vitro antibacterial activity expressed as MIC against Escherichia coli (ATCC 25922) following pre-incubation in mouse serum
Citrobacter freundii [14] = test: In vitro antibacterial activity against C. freundii(GC 2211) without preincubation in mouse serum
Morganella morganii [15] = test: In vitro antibacterial activity against M. morganii(GC 2213) without pre-incubation in mouse serum
Enterococcus faecalis [16] = test: In vitro antibacterial activity against E. faecalis(GC 842) without pre-incubation in mouse serum
Mus musculus [17] = test: Antibacterial activity against Escherichia coli (311) infection in mice after single oral dose, activity expressed as ED50
Staphylococcus aureus [18] = test: In vitro antibacterial activity against S. aureus(ATCC 29213) without pre-incubation in mouse serum
Enterococcus faecium [19] = test: In vitro for antibacterial activity against E. faecium(GC 1182) following pre-incubation in mouse serum
Morganella morganii [20] = test: In vitro antibacterial activity against M. morganii(GC 2213) following pre-incubation in mouse serum
Escherichia coli [21] = test: In vitro antibacterial activity expressed as MIC against E. coli(GC 1792) without pre-incubation in mouse serum
Escherichia coli [22] = test: In vitro antibacterial activity expressed as MIC against E. coli(GC 2205) without pre-incubation in mouse serum
Enterobacter cloacae [23] = test: In vitro antibacterial activity against E. cloacae(GC 2209) following preincubation in mouse serum
Citrobacter freundii [24] = test: In vitro antibacterial activity against C. freundii(GC 2211) following pre-incubation in mouse serum
Pseudomonas aeruginosa [25] = test: In vitro antibacterial activity against P. aeruginosa(GC 1544 oprd) following pre-incubation in mouse serum
Enterococcus faecalis [26] = test: In vitro antibacterial activity against E. faecalis(GC 842) following pre-incubation in mouse serum
Escherichia coli [27] = test: In vitro antibacterial activity expressed as MIC against E. coli(GC 2205) following pre-incubation in mouse serum
[28] = target: T1, Dipeptidase 1 (Sus scrofa) (UniProt P22412); test: Relative hydrolysis by hog Dehydropeptidase
T1 sequence (whole entry): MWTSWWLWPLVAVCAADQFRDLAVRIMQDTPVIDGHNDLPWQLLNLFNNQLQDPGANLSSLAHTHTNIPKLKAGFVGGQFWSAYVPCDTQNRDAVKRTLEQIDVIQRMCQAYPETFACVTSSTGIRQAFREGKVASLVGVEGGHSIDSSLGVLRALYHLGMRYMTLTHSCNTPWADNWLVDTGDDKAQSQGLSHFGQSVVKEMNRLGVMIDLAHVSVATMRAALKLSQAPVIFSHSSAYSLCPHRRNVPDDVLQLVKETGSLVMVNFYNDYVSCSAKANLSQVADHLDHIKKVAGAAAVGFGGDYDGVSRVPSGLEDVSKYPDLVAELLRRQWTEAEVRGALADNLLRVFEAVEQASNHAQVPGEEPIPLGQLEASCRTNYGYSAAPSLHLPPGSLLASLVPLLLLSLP

Escherichia coli [29] = test: In vitro antibacterial activity expressed as MIC against E. coli(GC 1792) following pre-incubation in mouse serum
Pseudomonas aeruginosa [30] = test: In vitro antibacterial activity against P. aeruginosa(GC 1544 oprd) without pre-incubation in mouse serum
Pseudomonas aeruginosa [31] = test: In vitro antibacterial activity against Pseudomonas aeruginosa (ATCC 27853) following pre-incubation in mouse serum

Compound	MIC [1] [µg/mL]	MIC (Enterococcus faecium [2]) [µg/mL]	MIC (Pseudomonas aeruginosa [3]) [µg/mL]	ED50 (Mus musculus [4]) [mg/kg]	MIC (Staphylococcus aureus [5]) [µg/mL]	MIC (Staphylococcus aureus [6]) [µg/mL]	MIC [7] [µg/mL]	MIC (Staphylococcus aureus [8]) [µg/mL]	MIC [9] [µg/mL]	MIC (Enterobacter cloacae [10]) [µg/mL]	MIC [11] [µg/mL]	MIC (Escherichia coli [12]) [µg/mL]	MIC (Escherichia coli [13]) [µg/mL]	MIC (Citrobacter freundii [14]) [µg/mL]	MIC (Morganella morganii [15]) [µg/mL]	MIC (Enterococcus faecalis [16]) [µg/mL]	ED50 (Mus musculus [17]) [mg/kg]	MIC (Staphylococcus aureus [18]) [µg/mL]	MIC (Enterococcus faecium [19]) [µg/mL]	MIC (Morganella morganii [20]) [µg/mL]	other results
CCOC(=O)OCOC(=O)C1=C(S[C@@H]2CCO[C@@H]2CNC(=O)OC(C)OC(=O)C(C)(C)C)[C@H](C)C2[C@@H]([C@@H](C)O)C(=O)N12 (stereo partly drawn)	> 128	> 128	> 128	0.46	0.06 (≈ 0.0973 µM)	4 (≈ 6.49 µM)	8 (≈ 13 µM)	64 (≈ 104 µM)	> 128	> 128	> 128	128 (≈ 208 µM)	0.06 (≈ 0.0973 µM)	> 128	> 128	32 (≈ 51.9 µM)	0.42	4 (≈ 6.49 µM)	64 (≈ 104 µM)	2 (≈ 3.24 µM)	MIC (Escherichia coli [21]): > 128 µg/mL; MIC (Escherichia coli [22]): 1 µg/mL (≈ 1.62 µM); MIC (Enterobacter cloacae [23]): 0.12 µg/mL (≈ 0.195 µM); MIC (Citrobacter freundii [24]): 0.5 µg/mL (≈ 0.811 µM); MIC (Pseudomonas aeruginosa [25]): 64 µg/mL (≈ 104 µM); MIC (Enterococcus faecalis [26]): 2 µg/mL (≈ 3.24 µM); MIC (Escherichia coli [27]): 0.06 µg/mL (≈ 0.0973 µM); Relative hydrolysis [28]: 19; MIC (Escherichia coli [29]): 0.06 µg/mL (≈ 0.0973 µM); MIC (Pseudomonas aeruginosa [30]): > 128 µg/mL; MIC (Pseudomonas aeruginosa [31]): 32 µg/mL (≈ 51.9 µM)
CCOC(=O)OCOC(=O)C1=C(S[C@@H]2CCO[C@@H]2CNC(=O)OCOC(=O)C(C)(C)C)[C@H](C)C2[C@@H]([C@@H](C)O)C(=O)N12 (stereo partly drawn)	> 128	> 128	> 128	0.73	0.12 (≈ 0.199 µM)	2 (≈ 3.32 µM)	8 (≈ 13.3 µM)	64 (≈ 106 µM)	> 128	> 128	> 128	128 (≈ 212 µM)	0.06 (≈ 0.0996 µM)	> 128	> 128	64 (≈ 106 µM)	0.96	4 (≈ 6.64 µM)	> 128	4 (≈ 6.64 µM)	MIC (Escherichia coli [21]): > 128 µg/mL; MIC (Escherichia coli [22]): 1 µg/mL (≈ 1.66 µM); MIC (Enterobacter cloacae [23]): 0.25 µg/mL (≈ 0.415 µM); MIC (Citrobacter freundii [24]): 0.5 µg/mL (≈ 0.83 µM); MIC (Pseudomonas aeruginosa [25]): 64 µg/mL (≈ 106 µM); MIC (Enterococcus faecalis [26]): 4 µg/mL (≈ 6.64 µM); MIC (Escherichia coli [27]): 0.12 µg/mL (≈ 0.199 µM); Relative hydrolysis [28]: 20; MIC (Escherichia coli [29]): 0.12 µg/mL (≈ 0.199 µM); MIC (Pseudomonas aeruginosa [30]): > 128 µg/mL; MIC (Pseudomonas aeruginosa [31]): 32 µg/mL (≈ 53.1 µM)
CC(C)C(=O)OCOC(=O)NC[C@H]1OCC[C@H]1SC1=C(C(=O)[O-])N2C(=O)[C@H]([C@@H](C)O)C2[C@H]1C.[Na+] (stereo partly drawn)	32	> 128	64	0.59	0.03	2	4	8	> 128	1	> 128	0.25	< 0.06	2	4	4	5.1	0.25	64	0.5	MIC (Escherichia coli [21]): 0.5 µg/mL; MIC (Escherichia coli [22]): 0.12 µg/mL; MIC (Enterobacter cloacae [23]): 0.06 µg/mL; MIC (Citrobacter freundii [24]): 0.25 µg/mL; MIC (Pseudomonas aeruginosa [25]): 16 µg/mL; MIC (Enterococcus faecalis [26]): 1 µg/mL; MIC (Escherichia coli [27]): < 0.06 µg/mL; Relative hydrolysis [28]: 2.9; MIC (Escherichia coli [29]): < 0.06 µg/mL; MIC (Pseudomonas aeruginosa [30]): > 128 µg/mL; MIC (Pseudomonas aeruginosa [31]): 8 µg/mL
